Usually Kd stands for the concentration at which binding is half-saturated.

One assay concerns the target Aβ42 monomers (Homo sapiens, UniProt P05067). Particulars: Aβ42 monomers immobilized on SPR chip; cited from earlier work.
A further assay addresses Aβ42 oligomers (Homo sapiens, UniProt P05067). Particulars: Aβ42 oligomers immobilized on SPR chip; cited from earlier work.
The target in assay [1] is T1, Aβ42 (Homo sapiens, UniProt P05067).
T1 construct: Aβ42 (residues 1-42 of the Aβ peptide); purchased AnaSpec (Fremont Calif., USA)
T1 sequence (P05067 672-713 limits assumed): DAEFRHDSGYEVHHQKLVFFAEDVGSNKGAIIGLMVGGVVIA
The assay can be described thus: Transmission electron microscopy of Aβ42 fibril formation. Here is the method:
For TEM and CD analysis, the samples were prepared as described in Brogi et al. [REF: Disease-modifying anti-Alzheimer's drugs: inhibitors of human cholinesterases interfering with β-amyloid aggregation. Brogi S, Butini S, Maramai S, Colombo R, Verga L, Lanni C, De Lorenzi E, Lamponi S, Andreassi M, Bartolini M, Andrisano V, Novellino E, Campiani G, Brindisi M, Gemma S. CNS Neurosci Ther. 2014 Jui; 20(7):624-32. Pubmed ID PMID 24935788], and analyzed at 50 and/or 100 μM concentrations. Briefly, to 1 mg lyophilized Aβ42 powder (AnaSpec) […] of 1% NH4OH solution was added. After 1 minute sonication, the solution was diluted with 20 mM phosphate buffer, pH 7.4, to the desired concentration, and divided into aliquots, which were freeze-dried and stored at −80° C. Each lyophilized peptide aliquot was resuspended in 20 mM phosphate buffer, pH 7.4 immediately before use. Samples were sonicated 3 min in an ultrasonic bath, to break down pre-formed aggregates and increase the peptide's effective concentration [REF: Sonication of proteins causes formation of aggregates that resemble amyloid. Stathopulos P B. Scholz G A, Hwang Y M, Rumfeldt J A, Lepock J R, Meiering E M. Protein Sci. 2004 November; 13(11):3017-27. Pubmed ID PMID 15459333]. […] Samples were analyzed either immediately after solubilization, or after different lengths of incubation time, as noted in FIG. legends. […]

A further assay has as its system human microglia. The assay can be described thus: TNFα and IL-6 release from microglia (ELISA). Particulars: microglial cell-free supernatant, 30 μM, 2 days' incubation. In kind it is cell-based.
In a further assay the target is Aβ40 (t = 0 days) (Homo sapiens, UniProt P05067). The assay can be described thus: SPRi equilibrium binding of LL-37 to immobilized Aβ40.
Aβ40 (t = 0 days), sequence (P05067 672-711): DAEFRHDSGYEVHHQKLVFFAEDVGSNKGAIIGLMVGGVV

The target in another assay is Aβ42 (t = 24 days) (Homo sapiens, UniProt P05067). As to the kind of experiment: SPRi equilibrium binding of LL-37 to immobilized Aβ42 (high-MW oligomers). Conditions: equilibrium fit.
Aβ42 (t = 24 days), sequence (P05067 672-713 limits assumed): as the sequence (P05067 672-713 limits assumed) above
A further assay concerns the target Aβ42 (t = 0 days) (Homo sapiens, UniProt P05067). As to the kind of experiment: SPRi equilibrium binding of LL-37 to immobilized Aβ42 (low-MW oligomers). Conditions: equilibrium fit.
The target of assay [2] is T1, Aβ42. The assay can be described thus: Circular dichroism conformational analysis of Aβ42. Particulars: 50 μM Aβ42 in the presence of LL-37 (1:1), t=0 and 24 hours. The procedure: For TEM and CD analysis, the samples were prepared as described in Brogi et al. [REF: Disease-modifying anti-Alzheimer's drugs: inhibitors of human cholinesterases interfering with β-amyloid aggregation. Brogi S, Butini S, Maramai S, Colombo R, Verga L, Lanni C, De Lorenzi E, Lamponi S, Andreassi M, Bartolini M, Andrisano V, Novellino E, Campiani G, Brindisi M, Gemma S. CNS Neurosci Ther. 2014 Jui; 20(7):624-32. Pubmed ID PMID 24935788], and analyzed at 50 and/or 100 μM concentrations. Briefly, to 1 mg lyophilized Aβ42 powder (AnaSpec) […] of 1% NH4OH solution was added. […] Samples were analyzed either immediately after solubilization, or after different lengths of incubation time, as noted in FIG. legends.
CD spectra were collected at 20° C. using a Jasco-810 spectrophotometer and a quartz cuvette with a 0.1 cm path length. […] Molar mean residue ellipticity [θ] is expressed in degrees cm2 dmol−1, and calculated as [θ]=θobs MWR/(10 l c), where θ is observed ellipticity in degrees; MWR, peptide mean residue molar weight; l, the optical path length in cm; and c, peptide concentration in […].
As in TEM analysis, spectra were recorded immediately after dissolving peptide according to [REF: Disease-modifying anti-Alzheimer's drugs: inhibitors of human cholinesterases interfering with β-amyloid aggregation. […]
In general terms: Circular dichroism is widely used to follow secondary structure.

Assay [3] concerns Aβ40 (t=0 days), Aβ42 (t=0 days), Aβ42 (t=24 days). The assay can be described thus: SPRi interaction with the three immobilized Aβ forms. The class given is binding, human.

Aβ42 (t = 0 days), sequence (P05067 672-713 limits assumed): as above
Aβ42 oligomers, sequence (P05067 672-713 limits assumed): as above
Aβ42 monomers, sequence (P05067 672-713 limits assumed): as above

On to `CC[C@]12C=CCN3CC[C@]4(C(=C(C(=O)OC)C1)Nc1ccccc14)[C@@H]32` [tabersonine], for which the Kd on Aβ42 monomers is 69 µM; on Aβ42 oligomers it was 535 µM.

As to LL-37, the “Aβ42 fibril formation (TEM)” value at Aβ42 [1] (50 μM Aβ42 co-incubated with equimolar LL-37, t=0, 3 and 9 days) is given as “inhibits Aβ42 fibril formation”. The “fibrils seen by TEM” value at Aβ42 [1] (50 μM Aβ42 with equimolar LL-37, t=9 days) is given as “no visible fibrils present”. Also, the IL-6 release entry in the assay on human microglia is given as “induced release”. Moreover, the TNFα release entry in the assay on human microglia was “induced release”. Besides, the “Rmax (maximal response)” value is listed as 0.59 at Aβ40 (t = 0 days) (LL-37 1-100 μM injected on immobilized Aβ40 (t=0 days), nonlinear fit of SPRi response at equilibrium); 4.43 on Aβ42 (t = 24 days) (LL-37 1-100 μM injected on immobilized Aβ42 (t=24 days)); 1.56 at Aβ42 (t = 0 days) (LL-37 1-100 μM injected on immobilized Aβ42 (t=0 days)). Moreover, the KA came out at 120000 M⁻¹ at Aβ40 (t = 0 days) (immobilized Aβ40 (t=0 days), equilibrium fit); 49200 M⁻¹ on Aβ42 (t = 24 days) (immobilized Aβ42 (t=24 days)); 75100 M⁻¹ on Aβ42 (t = 0 days) (immobilized Aβ42 (t=0 days)). The “Aβ42 secondary structure (CD)” value on Aβ42 [2] is given as “prevented, to a large degree, from forming typical β structure”. In addition, the SPRi interaction signal entry in assay [3] (analyte flowed onto the SPRi chip for 10 minutes, all three Aβ forms) was “specific and reversible interactions”.

For “same amino acid composition as natural LL-37, sequence GLKLRFEFSKIKGEFLKTPEVRFRDIKLKDNRISVQR; from AnaSpec [scrambled LL-37, reference compound]”, in assay [3] (same equilibrium analysis, control scrambled-sequence peptide), the binding affinities constants result is recorded as “could not be calculated”.

The values above are taken from patent US20190015361A1 (Maxwell Biosciences, Inc., priority 2017, published 2019).
